Test results reported in US12138256B2, “Treatment of cardiopulmonary disorders” (Bayer Aktiengesellschaft, priority 2021, dated 2024).
Several values for one entry are separate records, joined by “and”; a condition that tells them apart may be missing. Identical values can stand only once.

Key:
[1] = test system: thromboxane analog U46619 induced PAH in minipigs; assay: Haemodynamics (PAP, BP) in the anesthetized thromboxane challenged PAH minipig after inhaled (nebulized) application (C-2.1); assay type: in vivo, Göttingen minipig; conditions: inhaled; for BP % change vs. baseline / PAP % change vs. baseline: 100 μg/kg nominal dose, individual animals
Experimental: Experiments were carried out in anesthetized Göttingen minipigs, anesthetized rats and conscious, telemetrically instrumented dogs. Acute pulmonary hypertension was induced for example by infusion of a thromboxane A2 analogon, by acute hypoxia treatment or hypoxia treatment over a number of weeks and/or by administration of monocrotaline. Test substances were applied via nebulization using the Nebutec® or Aeroneb® Pro nebulizer system, and/or by means of powder and/or solution applicators for experimental intratracheal administration (Liquid MicroSprayer®, Dry Powder Insufflator™, MicroSprayer®, Penn-Century Inc., Wyndmoor, PA, USA) or after solid nebulization inserted into the inspiration arm of the ventilation. Compounds were employed as solids or solutions depending on the molecular structure and the technical possibility depending on the experiment. The haemodynamic signals were recorded and evaluated by means of pressure transducers/amplifiers (Combitransducer B. Braun, Melsungen, Germany or CardioMEMS Inc., Atlanta, GA, USA) and Ponemah® or CardioMems® as data aquisition software. After long-term experiments (for example monocrotaline rat), it is also possible to carry out a histological evaluation.
Healthy Gottingen Minipigs® Ellegaard (Ellegaard, Denmark) of both sexes and having a weight of 2-6 kg were used. The animals were sedated by i.m. administration of about 25 mg/kg ketamine and about 10 mg/kg azaperone. Anaesthesia was initiated by i.v. administration of about 2 mg/kg ketamine and about 0.3 mg/kg midazolam. Maintenance of anaesthesia was by i.v. administration of about 7.5-30 mg/kg/h ketamine and about 1-4 mg/kg/h midazolam (rate of infusion 1-4 ml/kg/h) and about 150 μg/kg/h pancuronium bromide (for example Pancuronium-Actavis). After intubation, the animals were ventilated by the ventilator at a constant respiratory volume (10-12 ml/kg, 35 breaths/min; Avea®, Viasys Healthcare, USA, or Engstrom Carestation, GE Healthcare, Freiburg, Germany) such that an end-tidal CO2 concentration of about 5% was achieved. Ventilation was performed with room air, enriched with about 40% oxygen (normoxia). For the measurement of the haemodynamic parameters such as pulmonary arterial pressure (PAP), blood pressure (BP) and heart rate (HR), catheters were inserted into the carotid artery to measure the blood pressure, and a Swan-Ganz® catheter was introduced in a flow-directed manner via the jugular vein into the pulmonary artery. The haemodynamic signals were recorded and evaluated by means of pressure transducers (Combitransducer, B. Braun, Melsungen, Germany)/amplifiers and Ponemah® as data aquisition software.
After the instruments have been placed into the animals, continuous infusion of a thromboxane A2 analog was initiated to increase the pulmonary arterial pressure. […] D0400, or Cayman Chemical Company, cat. no. 16440), dissolved in physiological saline, were infused to achieve an increase of the mean pulmonary arterial pressure to values of over 25 mmHg. 30 minutes after the start of the infusion, a plateau was reached, and the experiment was started.
The test substances were administered as i.v. infusion or by inhalation. For the preparation of the solution for inhalation, the following procedure was adopted: For an animal having a weight of 4 kg, to prepare the stock solution (300 μg/kg), 1.2 mg of the test compound were weighed out and dissolved in a total volume of 3 ml (1% DMSO, 99% 0.2% strength citric acid solution, 1 N aqueous sodium hydroxide solution to adjust the pH to 8). The solution was then diluted to the concentration employed using 0.2% strength citric acid which had been adjusted to pH 8 beforehand with aqueous sodium hydroxide solution. In each test, 3 ml of the solution of test compound per 4 kg animal were nebulized in the inhalation arm of the respiratory circuit using the Aeroneb® Pro nebulizer system. The mean nebulization time was about 7 min from the start of the nebulization.

[2] = Thermal stability of the solid (90° C., 7 days, HPLC peak areas); assay type: physicochemical
Experimental: 0.3 mg of the test compound, e.g. comparative example 11 were solved in 0.1 ml dimethylsulfoxide and 0.4 ml acetonitrile. Then 1.0 ml water was added. For complete dissolution the HPLC vial was shaken and sonicated. This solution was immediately analyzed by HPLC (reference at t0). 0.3 mg of the test compound was weighed into another HPLC vial. The vial was capped and stored for 7 days in a heating block at 90° C.
After this time the vial was decapped and 0.1 ml dimethylsulfoxide and 0.4 ml acetonitrile were added to the stressed compound. Then 1.0 ml water was added. For complete dissolution the HPLC vial was shaken and sonicated. The sample was analyzed by HPLC (sample after 1 week). The peak areas in percentage are used for quantification.

[3] = Storage stability of pseudopolymorphic forms (XRPD after storage); assay type: physicochemical; conditions: monohydrate II as starting material; one, three and six months; container, temperature, relative humidity per example
[4] = test system: guinea pig trachea pre-contracted with carbachol; assay: Bronchorelaxation in vitro: carbachol pre-contracted guinea pig trachea rings, wash-out recovery factor (C-3.1)
Experimental: Male Dunkin Hartley guinea pig were euthanized using carbon dioxide. The primary bronchus was removed and placed in ice-cold Krebs-Henseleit buffer of following composition (in mmol/l): […] For recording of isometric tension, the bronchial rings were mounted between two hooks. One hook was connected to a force transducer the other was moveable and allowed a precise adjustment of resting tension at 1.5 g. During the equilibration period of 60 min the tissue was washed every 20 min with buffer. […] After 30 min, a cumulative dose response curve of the test compound was constructed. Every concentration was incubated till the response was stable. […] The relaxation was expressed as percentage tension. […] The recovery factor was calculated as a ratio of bronchodilation 1 h after compound application and bronchodilation 1 h after removal (wash out) of test compound. […] Relaxation via Cinaciguat (comparative example 1) and Riociguat (comparative example 2) reached a steady state within the 1 h incubation time. […] In contrast, relaxation induced by comparative example 11 was further progressing during the wash out period (recovery factor 1.41).

Cc1ccc2oc(-c3ccc(COc4ccccc4CCN(CCCCC(=O)O)C4CCCc5nc(C(=O)O)ccc54)cc3)nc2c1 (single isomer, unassigned; (+)) [comparative example 5, (+)-5-{(4-Carboxybutyl)[2-(2-{[4-(5-methyl-1,3-benzoxazol-2-yl)benzyl]oxy}phenyl)ethyl]amino}-5,6,7,8-tetrahydroquinoline-2-carboxylic acid]
BP % change vs. baseline ([1]; time 80 min): 100.0% | PAP % change vs. baseline ([1]; time 80 min): 100.0% | BP % change vs. baseline ([1]; time 90 min): 100.0% | PAP % change vs. baseline ([1]; time 90 min): 101.5% and 99.2% and 102.0% | BP % change vs. baseline ([1]; time 100 min): 99.1% and 97.7% and 101.8% | PAP % change vs. baseline ([1]; time 100 min): 98.0% and 90.0% and 93.8% | BP % change vs. baseline ([1]; time 110 min): 99.1% and 97.7% and 100.0% | PAP % change vs. baseline ([1]; time 110 min): 91.7% and 86.4% and 79.0% | BP % change vs. baseline ([1]; time 120 min): 99.1% and 96.6% and 97.3% | PAP % change vs. baseline ([1]; time 120 min): 90.0% and 86.1% and 73.7% | BP % change vs. baseline ([1]; time 130 min): 98.1% and 97.7% and 97.3% | PAP % change vs. baseline ([1]; time 130 min): 87.6% and 88.6% and 72.9% | BP % change vs. baseline ([1]; time 140 min): 98.1% and 98.9% and 97.3% | PAP % change vs. baseline ([1]; time 140 min): 87.1% and 93.0% and 73.7% | BP % change vs. baseline ([1]; time 150 min): 95.3% and 100.0% and 97.3% | PAP % change vs. baseline ([1]; time 150 min): 87.6% and 95.0% and 75.1% | BP % change vs. baseline ([1]; time 160 min): 96.2% and 101.1% and 98.2% | PAP % change vs. baseline ([1]; time 160 min): 88.7% and 96.4% and 77.8% | BP % change vs. baseline ([1]; time 170 min): 95.3% and 101.1% and 96.4% | PAP % change vs. baseline ([1]; time 170 min): 89.8% and 97.8% and 79.2% | BP % change vs. baseline ([1]; time 180 min): 95.3% and 101.1% and 97.3% | PAP % change vs. baseline ([1]; time 180 min): 90.0% and 100.6% and 81.5% | BP % change vs. baseline ([1]; time 190 min): 94.3% and 102.3% and 96.4% | PAP % change vs. baseline ([1]; time 190 min): 90.9% and 101.9% and 81.9% | BP % change vs. baseline ([1]; time 200 min): 92.5% and 103.4% and 95.5% | PAP % change vs. baseline ([1]; time 200 min): 91.4% and 102.8% and 85.2% | BP % change vs. baseline ([1]; time 210 min): 91.5% and 102.3% and 96.4% | PAP % change vs. baseline ([1]; time 210 min): 92.7% and 104.2% and 88.1% | BP % change vs. baseline ([1]; time 220 min): 91.5% and 103.4% and 96.4% | PAP % change vs. baseline ([1]; time 220 min): 94.5% and 105.8% and 91.3% | BP % change vs. baseline ([1]; time 230 min): 91.5% and 103.4% and 94.6% | PAP % change vs. baseline ([1]; time 230 min): 95.1% and 106.1% and 93.1% | BP % change vs. baseline ([1]; time 240 min): 90.6% and 102.3% and 94.6% | PAP % change vs. baseline ([1]; time 240 min): 95.5% and 105.8% and 92.9% | BP % change vs. baseline ([1]; time 250 min): 90.6% and 102.3% and 94.6% | PAP % change vs. baseline ([1]; time 250 min): 96.5% and 105.8% and 94.3% | BP % change vs. baseline ([1]; time 260 min): 89.6% and 101.1% and 93.8% | PAP % change vs. baseline ([1]; time 260 min): 98.1% and 106.4% and 95.5% | BP % change vs. baseline ([1]; time 270 min): 90.6% and 103.4% and 93.8% | PAP % change vs. baseline ([1]; time 270 min): 98.6% and 107.5% and 95.9% | BP % change vs. baseline ([1]; time 280 min): 89.6% and 100.0% and 93.8% | PAP % change vs. baseline ([1]; time 280 min): 98.6% and 106.4% and 97.2% | BP % change vs. baseline ([1]; time 290 min): 88.7% and 102.3% and 92.9% | PAP % change vs. baseline ([1]; time 290 min): 99.6% and 105.8% and 98.4% | BP % change vs. baseline ([1]; time 300 min): 89.6% and 100.0% and 92.0% | PAP % change vs. baseline ([1]; time 300 min): 100.1% and 107.0% and 98.6% | BP % change vs. baseline ([1]; time 310 min): 89.6% and 100.0% and 91.1% | PAP % change vs. baseline ([1]; time 310 min): 101.7% and 107.5% and 99.6% | BP % change vs. baseline ([1]; time 320 min): 89.6% and 105.7% and 91.1% | PAP % change vs. baseline ([1]; time 320 min): 102.8% and 109.5% and 100.1% | BP % change vs. baseline ([1]; time 330 min): 89.6% and 98.9% and 89.3% | PAP % change vs. baseline ([1]; time 330 min): 102.9% and 106.1% and 99.3% | duration of action ([1]; nominal dose of 100 μg/kg): only a moderate duration of action | lung selectivity ([1]; nominal dose of 100 μg/kg): good lung selectivity | thermal stability [2]: limited thermal stability

O.O=C(O)c1ccc(CCN(CCc2ccccc2OCc2ccc(-c3ccc(C(F)(F)F)cc3)cc2Cl)[C@H]2CCCc3nc(C(=O)O)ccc32)cc1 [7d]
Result (form after storage) [3]: monohydrate I

O=C(O)CCCCN(CCc1ccccc1OCc1ccc(CCc2ccccc2)cc1)Cc1ccc(C(=O)O)cc1 [comparative example 1, Cinaciguat]
Relaxation (%) (timepoint at 70 min) Mean ([4]; 1 nmol/l): 60.4% | Relaxation (%) (timepoint at 130 min) Mean ([4]; 1 nmol/l): 66.2%

COC(=O)N(C)c1c(N)nc(-c2nn(Cc3ccccc3F)c3ncccc23)nc1N [comparative example 2, Riociguat]
Relaxation (%) (timepoint at 70 min) Mean ([4]; 1 μmol/l): 29.1% | Relaxation (%) (timepoint at 130 min) Mean ([4]; 1 μmol/l): 85.1%

Ethyl 5-{[2-(2-{[3-chloro-4′-(trifluoromethyl)biphenyl-4-yl]methoxy}phenyl)ethyl]amino}-5,6,7,8-tetrahydroquinoline-2-carboxylate dihydrochloride [7a]
Result (form after storage) [3]: monohydrate II
